Assay results taken from ChEMBL document CHEMBL1201862, “PubChem BioAssay data set” (2004).
The source made the active and inactive calls.

What was measured:
[1] = target: Polyadenylate-binding protein 1 (Homo sapiens, UniProt P11940); experiment: PABP poly(A) RNA binding inhibitors, primary screen, biochemical, fluorescence polarization, uHTS (AID 2014)
[2] = target: Eukaryotic translation initiation factor 4H (Homo sapiens, UniProt Q15056); experiment: human eIF4H binding inhibitors, primary screen, translation initiation inhibitor project, biochemical, uHTS, fluorescence polarization (AID 2012)
[3] = target: DNA dC->dU-editing enzyme APOBEC-3A (Homo sapiens, UniProt P31941); experiment: Dose Response confirmation of small molecule APOBEC3A DNA Deaminase Inhibitors via a fluorescence-based single-stranded DNA deaminase assay. [Related pubchem assays (depositor defined):AID493011, AID493024]; assay type: functional
[4] = target: DNA dC->dU-editing enzyme APOBEC-3G (Homo sapiens, UniProt Q9HC16); assay type: functional;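 also: Dose-response counterscreen measuring inhibition of APOBEC3G DNA deaminase activity, run while confirming APOBEC3A inhibitors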
[5] = target: T1, Coagulation factor XII (Homo sapiens, UniProt P00748); assay type: functional;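 also: activated factor XIIa alpha cleaving a fluorogenic AMC peptide substrate; inhibitor potency from loss of enzyme activity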
T1 sequence (P00748 whole entry): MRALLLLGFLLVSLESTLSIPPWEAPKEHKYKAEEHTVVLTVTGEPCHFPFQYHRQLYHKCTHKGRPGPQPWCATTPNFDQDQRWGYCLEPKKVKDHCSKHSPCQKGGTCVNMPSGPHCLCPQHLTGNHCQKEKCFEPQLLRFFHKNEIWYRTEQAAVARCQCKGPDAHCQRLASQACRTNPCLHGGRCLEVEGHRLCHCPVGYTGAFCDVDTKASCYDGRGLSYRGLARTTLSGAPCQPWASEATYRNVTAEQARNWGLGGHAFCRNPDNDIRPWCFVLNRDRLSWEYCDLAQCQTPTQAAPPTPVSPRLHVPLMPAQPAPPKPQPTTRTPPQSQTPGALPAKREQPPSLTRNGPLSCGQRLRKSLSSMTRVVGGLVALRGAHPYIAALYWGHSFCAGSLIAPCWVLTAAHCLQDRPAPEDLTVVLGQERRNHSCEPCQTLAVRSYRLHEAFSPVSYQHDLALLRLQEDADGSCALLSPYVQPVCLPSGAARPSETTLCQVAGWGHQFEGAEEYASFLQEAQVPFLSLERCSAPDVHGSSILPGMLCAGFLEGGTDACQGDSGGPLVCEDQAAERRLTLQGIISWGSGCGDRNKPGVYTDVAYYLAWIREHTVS

[6] = target: T2, Carboxy-terminal domain RNA polymerase II polypeptide A small phosphatase 1 (Homo sapiens, UniProt Q9GZU7); experiment: inhibitors of CTDSP1, concentration-response testing, biochemical assay, absorbance-based, actives from ultra-high-throughput screening (AID 540297); assay type: functional
T2 sequence (Q9GZU7 whole entry): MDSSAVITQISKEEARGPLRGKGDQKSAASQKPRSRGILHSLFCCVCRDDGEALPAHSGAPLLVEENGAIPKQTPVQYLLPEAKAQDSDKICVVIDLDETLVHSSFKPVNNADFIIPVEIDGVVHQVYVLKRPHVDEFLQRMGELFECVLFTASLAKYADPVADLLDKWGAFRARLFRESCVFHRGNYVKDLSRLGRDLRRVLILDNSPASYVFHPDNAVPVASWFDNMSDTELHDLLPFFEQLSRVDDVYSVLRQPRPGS

[7] = target: T3, Short transient receptor potential channel 4 (Mus musculus, UniProt Q9QUQ5); experiment: mouse TRPC4 channel inhibitors, dose response, cell-based, HEK293 TRPC4/mu-opioid, Fluo-4 calcium (AID 434942); assay type: functional;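 also: potency of inhibitors blocking the TRPC4 calcium response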
T3 sequence (Q9QUQ5 whole entry): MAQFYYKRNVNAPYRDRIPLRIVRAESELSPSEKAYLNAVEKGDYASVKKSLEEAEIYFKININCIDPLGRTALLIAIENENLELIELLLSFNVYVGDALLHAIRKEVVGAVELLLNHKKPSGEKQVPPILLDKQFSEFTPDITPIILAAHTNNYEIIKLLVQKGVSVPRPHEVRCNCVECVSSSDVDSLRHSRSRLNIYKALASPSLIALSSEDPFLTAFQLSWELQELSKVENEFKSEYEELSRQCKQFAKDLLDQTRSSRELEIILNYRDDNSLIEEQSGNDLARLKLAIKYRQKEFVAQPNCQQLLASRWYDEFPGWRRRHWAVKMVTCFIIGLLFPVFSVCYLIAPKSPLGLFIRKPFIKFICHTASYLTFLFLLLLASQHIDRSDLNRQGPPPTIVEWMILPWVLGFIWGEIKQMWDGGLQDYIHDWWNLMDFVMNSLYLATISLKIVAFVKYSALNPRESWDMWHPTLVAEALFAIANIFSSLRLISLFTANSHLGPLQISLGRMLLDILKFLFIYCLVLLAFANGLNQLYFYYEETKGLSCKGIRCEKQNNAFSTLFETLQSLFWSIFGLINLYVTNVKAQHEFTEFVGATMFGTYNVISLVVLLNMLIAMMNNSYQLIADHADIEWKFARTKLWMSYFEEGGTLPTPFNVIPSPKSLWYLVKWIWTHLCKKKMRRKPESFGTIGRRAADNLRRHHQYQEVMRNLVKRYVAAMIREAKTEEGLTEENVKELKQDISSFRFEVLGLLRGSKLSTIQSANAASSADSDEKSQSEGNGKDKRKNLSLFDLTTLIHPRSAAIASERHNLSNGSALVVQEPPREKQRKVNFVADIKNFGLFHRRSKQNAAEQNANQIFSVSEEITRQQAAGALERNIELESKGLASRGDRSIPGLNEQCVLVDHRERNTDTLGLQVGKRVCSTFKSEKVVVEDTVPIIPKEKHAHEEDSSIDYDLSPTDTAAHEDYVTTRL

[8] = microbe, parasite or virus in culture; assay type: functional; conditions: Mycobacterium tuberculosis
[9] = target: T4, Replicative DNA helicase DnaB (Mycobacterium tuberculosis, UniProt P9WMR3); experiment: DnaB intein splicing inhibitors, dose response, biochemical, cell-free fluorescence (AID 449749); assay type: functional
T4 sequence (P9WMR3 whole entry): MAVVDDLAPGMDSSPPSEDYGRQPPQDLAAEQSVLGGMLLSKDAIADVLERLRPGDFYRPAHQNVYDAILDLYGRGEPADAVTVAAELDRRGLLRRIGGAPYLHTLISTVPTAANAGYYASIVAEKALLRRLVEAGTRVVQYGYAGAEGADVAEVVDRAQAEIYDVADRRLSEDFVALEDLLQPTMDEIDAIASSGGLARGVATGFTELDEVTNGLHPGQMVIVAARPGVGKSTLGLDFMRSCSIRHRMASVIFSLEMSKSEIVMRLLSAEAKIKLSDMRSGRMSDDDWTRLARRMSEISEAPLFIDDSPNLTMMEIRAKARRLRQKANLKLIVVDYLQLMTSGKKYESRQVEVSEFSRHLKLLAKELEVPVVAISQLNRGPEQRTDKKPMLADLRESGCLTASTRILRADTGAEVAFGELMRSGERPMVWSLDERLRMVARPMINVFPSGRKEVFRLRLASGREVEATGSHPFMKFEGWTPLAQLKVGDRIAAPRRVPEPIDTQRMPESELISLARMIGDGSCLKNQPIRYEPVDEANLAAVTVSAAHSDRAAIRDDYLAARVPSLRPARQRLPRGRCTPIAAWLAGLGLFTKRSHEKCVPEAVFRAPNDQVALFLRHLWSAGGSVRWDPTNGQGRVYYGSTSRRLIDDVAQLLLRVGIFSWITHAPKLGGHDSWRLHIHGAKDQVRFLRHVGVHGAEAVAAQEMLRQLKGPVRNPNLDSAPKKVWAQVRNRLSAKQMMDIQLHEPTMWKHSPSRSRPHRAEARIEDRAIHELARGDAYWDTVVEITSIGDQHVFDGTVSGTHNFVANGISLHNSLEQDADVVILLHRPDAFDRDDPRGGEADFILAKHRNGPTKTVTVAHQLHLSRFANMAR

[10] = target: T5, Protein RecA (Mycobacterium tuberculosis, UniProt P9WHJ3); experiment: Fluorescence Cell-Free Homogeneous Dose Retest to Identify Inhibitors of RecA-Intein Splicing Activity. [Related pubchem assays (depositor defined):AID2097, AID2223, AID489010, AID492950]; assay type: functional
T5 sequence (P9WHJ3 whole entry): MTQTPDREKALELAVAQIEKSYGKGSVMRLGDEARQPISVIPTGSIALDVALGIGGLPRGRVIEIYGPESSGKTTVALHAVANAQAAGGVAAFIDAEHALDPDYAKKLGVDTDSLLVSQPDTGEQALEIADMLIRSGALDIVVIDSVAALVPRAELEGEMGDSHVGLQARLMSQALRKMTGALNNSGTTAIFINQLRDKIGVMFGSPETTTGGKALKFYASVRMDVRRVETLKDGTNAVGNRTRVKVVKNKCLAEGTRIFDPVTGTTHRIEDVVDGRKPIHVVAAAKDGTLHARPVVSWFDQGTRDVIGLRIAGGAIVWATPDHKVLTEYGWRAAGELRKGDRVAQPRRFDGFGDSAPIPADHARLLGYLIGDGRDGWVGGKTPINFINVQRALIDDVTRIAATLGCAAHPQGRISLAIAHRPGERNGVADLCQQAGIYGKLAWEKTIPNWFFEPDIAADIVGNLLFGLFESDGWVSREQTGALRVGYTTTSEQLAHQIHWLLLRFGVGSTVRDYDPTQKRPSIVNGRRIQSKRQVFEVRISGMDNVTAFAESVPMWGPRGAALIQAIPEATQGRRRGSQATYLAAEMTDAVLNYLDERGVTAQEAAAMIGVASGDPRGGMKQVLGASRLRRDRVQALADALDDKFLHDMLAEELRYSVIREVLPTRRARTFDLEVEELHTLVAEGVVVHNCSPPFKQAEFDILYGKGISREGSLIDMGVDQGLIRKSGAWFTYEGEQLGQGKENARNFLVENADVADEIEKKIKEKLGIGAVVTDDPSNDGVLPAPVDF

[11] = tested on: Vero; experiment: cells; assay type: functional; conditions: Chlorocebus sabaeus
[12] = target: Large T antigen (Simian virus 40, UniProt P03070); assay type: functional, Betapolyomavirus macacae;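 also: Confirmatory-stage PubChem screen for compounds that inhibit SV40 T antigen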
[13] = target: Luciferin 4-monooxygenase (Photinus pyralis, UniProt P08659); experiment: firefly luciferase enzyme inhibitors, dose response, biochemical, luminescence (AID 1891)
[14] = cells; assay type: functional
[15] = Luminescence Cell-Based Dose Confirmation HTS to Identify Inhibitors of Platelet Dense Granule Release. [Related pubchem assays: 1663 (Primary HTS), 1678 (Summary of Project)]; assay type: functional
[16] = target: T3, Short transient receptor potential channel 4; experiment: mouse TRPC4 channel activators, dose response, cell-based, HEK293 TRPC4/mu-opioid, Fluo-4 calcium (AID 434937); assay type: functional
[17] = growth suppression of beta-catenin-knockout colon cells, dose response, cell-based, HCT116, human colon tumor (AID 1045); assay type: functional;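 also: HCT116 colon tumor cells with beta catenin knocked out; cells exposed to compound for 60 hours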
[18] = control 3'UTR Renilla luciferase suppression, dose response, counter-screen for Shn3 inhibitor project, cell-based, Clone20-Shn3RL, cherry-picked (AID 624133); assay type: functional
[19] = Shn3 3'UTR reporter inhibitors, dose response, cell-based, Clone20 osteoblasts, firefly luciferase, cherry-picked (AID 624132); assay type: functional;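 also: firefly luciferase luminescence from reporter carrying the Shn3 3'UTR in osteoblasts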
[20] = growth suppression of PTEN-null colon cells, dose response, cell-based, HCT116 PTEN knockout (AID 1047); assay type: functional;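 also: HCT116 colon tumor cells with PTEN knocked out; cells exposed to compound for 60 hours before readout; potency for loss of cell viability measured by luminescence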
[21] = target: Genome polyprotein (dengue virus type 2, UniProt P29990); experiment: Dengue-2 NS5 methyltransferase inhibitors, primary screen, biochemical, confirmation dose response (AID 588689); assay type: functional
Sequence of Genome polyprotein (P29990 2492-3391 limits assumed): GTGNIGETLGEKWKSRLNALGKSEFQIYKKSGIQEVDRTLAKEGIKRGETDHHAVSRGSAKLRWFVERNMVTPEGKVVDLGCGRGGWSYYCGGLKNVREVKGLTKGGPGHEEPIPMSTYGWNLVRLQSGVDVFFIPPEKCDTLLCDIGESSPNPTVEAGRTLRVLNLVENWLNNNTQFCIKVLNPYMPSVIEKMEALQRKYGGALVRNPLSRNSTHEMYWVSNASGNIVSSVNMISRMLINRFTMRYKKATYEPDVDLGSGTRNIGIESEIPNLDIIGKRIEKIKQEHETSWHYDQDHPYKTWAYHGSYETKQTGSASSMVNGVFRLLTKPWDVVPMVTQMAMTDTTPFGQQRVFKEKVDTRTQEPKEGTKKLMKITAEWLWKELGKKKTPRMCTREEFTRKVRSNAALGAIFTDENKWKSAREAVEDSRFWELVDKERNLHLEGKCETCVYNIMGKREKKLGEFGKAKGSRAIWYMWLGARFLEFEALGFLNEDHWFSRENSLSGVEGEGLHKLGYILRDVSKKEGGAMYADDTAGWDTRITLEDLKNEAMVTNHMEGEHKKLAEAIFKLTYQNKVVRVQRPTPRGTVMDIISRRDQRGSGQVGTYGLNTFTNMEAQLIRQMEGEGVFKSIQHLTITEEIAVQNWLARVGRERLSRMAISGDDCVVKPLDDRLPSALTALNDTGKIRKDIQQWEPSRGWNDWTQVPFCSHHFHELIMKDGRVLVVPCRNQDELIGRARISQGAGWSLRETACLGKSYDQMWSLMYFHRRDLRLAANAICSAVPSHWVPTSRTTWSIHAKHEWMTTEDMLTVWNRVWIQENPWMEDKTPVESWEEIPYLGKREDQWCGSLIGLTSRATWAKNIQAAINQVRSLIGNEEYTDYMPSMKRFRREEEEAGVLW

Sequence of DNA dC->dU-editing enzyme APOBEC-3A (P31941 whole entry): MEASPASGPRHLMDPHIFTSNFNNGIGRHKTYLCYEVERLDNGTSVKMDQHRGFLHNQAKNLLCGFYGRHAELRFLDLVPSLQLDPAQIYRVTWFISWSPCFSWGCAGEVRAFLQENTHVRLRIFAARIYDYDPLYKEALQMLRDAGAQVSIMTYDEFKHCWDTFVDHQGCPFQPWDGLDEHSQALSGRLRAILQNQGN
Sequence of Polyadenylate-binding protein 1 (P11940 whole entry): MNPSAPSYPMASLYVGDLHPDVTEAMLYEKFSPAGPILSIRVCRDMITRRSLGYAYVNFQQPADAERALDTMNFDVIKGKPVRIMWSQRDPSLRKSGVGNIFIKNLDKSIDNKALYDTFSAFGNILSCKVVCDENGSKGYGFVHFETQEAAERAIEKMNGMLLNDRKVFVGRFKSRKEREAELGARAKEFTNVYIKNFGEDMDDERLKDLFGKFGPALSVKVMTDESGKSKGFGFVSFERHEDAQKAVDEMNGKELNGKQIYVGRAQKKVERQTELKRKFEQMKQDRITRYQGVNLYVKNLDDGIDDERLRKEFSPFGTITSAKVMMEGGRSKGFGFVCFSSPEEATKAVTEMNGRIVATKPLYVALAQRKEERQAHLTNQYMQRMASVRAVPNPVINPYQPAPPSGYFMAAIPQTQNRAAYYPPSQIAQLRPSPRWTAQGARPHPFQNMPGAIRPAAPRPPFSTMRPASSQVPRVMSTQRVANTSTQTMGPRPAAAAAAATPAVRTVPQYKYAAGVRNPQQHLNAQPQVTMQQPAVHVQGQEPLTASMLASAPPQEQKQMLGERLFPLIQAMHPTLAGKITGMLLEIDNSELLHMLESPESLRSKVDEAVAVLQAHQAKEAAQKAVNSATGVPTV
Sequence of Large T antigen (P03070 whole entry): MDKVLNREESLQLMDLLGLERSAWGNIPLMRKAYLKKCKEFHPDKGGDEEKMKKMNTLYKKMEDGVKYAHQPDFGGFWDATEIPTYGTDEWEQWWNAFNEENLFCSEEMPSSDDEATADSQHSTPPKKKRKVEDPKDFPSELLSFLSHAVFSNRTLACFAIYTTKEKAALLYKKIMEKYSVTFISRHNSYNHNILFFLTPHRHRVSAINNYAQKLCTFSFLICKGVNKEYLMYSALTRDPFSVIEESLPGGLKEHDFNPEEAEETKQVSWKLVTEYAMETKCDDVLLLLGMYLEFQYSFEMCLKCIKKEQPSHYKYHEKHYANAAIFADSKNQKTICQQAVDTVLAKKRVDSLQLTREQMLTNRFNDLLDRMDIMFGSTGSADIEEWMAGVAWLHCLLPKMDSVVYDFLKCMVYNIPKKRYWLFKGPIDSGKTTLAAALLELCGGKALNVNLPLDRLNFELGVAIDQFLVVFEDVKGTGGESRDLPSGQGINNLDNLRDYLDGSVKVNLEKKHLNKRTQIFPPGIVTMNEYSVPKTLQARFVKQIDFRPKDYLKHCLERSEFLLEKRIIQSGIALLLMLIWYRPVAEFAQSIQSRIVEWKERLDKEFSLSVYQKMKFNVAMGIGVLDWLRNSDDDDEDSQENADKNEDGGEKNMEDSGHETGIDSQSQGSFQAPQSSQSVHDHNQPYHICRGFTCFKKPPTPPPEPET
Sequence of DNA dC->dU-editing enzyme APOBEC-3G (Q9HC16 whole entry): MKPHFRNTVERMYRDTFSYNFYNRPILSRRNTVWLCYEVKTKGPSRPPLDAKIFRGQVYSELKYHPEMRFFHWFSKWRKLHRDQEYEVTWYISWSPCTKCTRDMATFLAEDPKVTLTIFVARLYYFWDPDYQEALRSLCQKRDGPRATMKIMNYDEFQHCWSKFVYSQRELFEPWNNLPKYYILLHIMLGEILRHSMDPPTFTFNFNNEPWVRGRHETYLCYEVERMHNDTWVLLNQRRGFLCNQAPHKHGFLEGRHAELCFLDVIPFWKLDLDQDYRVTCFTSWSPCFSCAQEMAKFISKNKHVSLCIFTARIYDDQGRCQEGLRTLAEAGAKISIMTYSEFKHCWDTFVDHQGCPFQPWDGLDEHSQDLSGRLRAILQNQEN
Sequence of Luciferin 4-monooxygenase (P08659 whole entry): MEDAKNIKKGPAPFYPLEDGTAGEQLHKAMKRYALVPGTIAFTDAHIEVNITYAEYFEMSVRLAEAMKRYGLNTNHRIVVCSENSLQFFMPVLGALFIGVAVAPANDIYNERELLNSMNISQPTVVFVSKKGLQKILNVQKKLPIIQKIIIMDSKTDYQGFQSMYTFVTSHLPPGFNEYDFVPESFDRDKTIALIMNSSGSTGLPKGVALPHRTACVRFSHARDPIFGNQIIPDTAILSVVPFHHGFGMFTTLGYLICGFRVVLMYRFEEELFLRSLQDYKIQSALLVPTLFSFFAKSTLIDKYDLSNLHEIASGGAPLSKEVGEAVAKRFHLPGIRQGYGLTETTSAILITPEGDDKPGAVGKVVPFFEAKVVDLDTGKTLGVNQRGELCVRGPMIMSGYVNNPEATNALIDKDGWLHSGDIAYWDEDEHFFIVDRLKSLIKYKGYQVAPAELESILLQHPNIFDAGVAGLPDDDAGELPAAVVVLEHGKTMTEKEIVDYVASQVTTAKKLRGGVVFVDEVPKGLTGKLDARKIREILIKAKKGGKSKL

CCN1C(NCCc2cccnc2)=N[C@@H](c2ccccc2)C(C(=O)OC)=C1C
IC50 [1]: 12 µM (active) | IC50 [2]: > 100 µM (inactive)

CC(Oc1ccc(F)cc1)C(=O)Nc1cc(S(=O)(=O)N2CCOCC2)ccc1N1CCN(C)CC1 (centres undefined)
IC50 [3]: 4.91 µM (active) | IC50 [4]: 8.29 µM (active)

O=C(NCc1ccco1)c1ccc2c(c1)CCO2
IC50 [5]: > 50 µM (inactive)

Fc1ccccc1Sc1ccccc1CNC1=NCCN1
IC50 [3]: 1.35 µM (active) | IC50 [6]: 4.12 µM (active) | IC50 [4]: 2.77 µM (active) | EC50 [7]: 0.944 µM (active)

Cc1ccc2c(C)c(C(=O)Nc3nnc(C)s3)oc2c1
IC50 [5]: > 50 µM (inactive)

CC(=O)c1c(COC(=O)c2cccnc2)nc2ccccc2[n+]1[O-]
IC50 [3]: 1.48 µM (active) | IC50 [4]: 2.09 µM (active)

N#CCn1c(CCl)nc2ccccc2c1=O
CC50 [8]: 30.8 µM (active) | AC50 [9]: 80.6 µM (active) | EC50 [10]: 7.2 µM (active) | CC50 [11]: 14.9 µM (active) | IC50 [12]: 15.1 µM (active)

COc1cc(/C=C2/C(=O)NN(c3ccc(Cl)cc3)C2=O)ccc1OC(=O)c1ccco1
EC50 [13]: > 112 µM (not active) | IC50 [14]: 16.6 µM (active) | IC50 [12]: 21.6 µM (active) | EC50 [15]: > 112 µM (not active)

Cc1c(C)n(CCC#N)c2ccccc12
IC50 [5]: > 50 µM (inactive)

CC(C)C[C@H](NC(=O)C1CC(=O)N(c2ccc3c(c2)OCO3)C1)C(=O)NCc1ccco1 (some centres undefined)
IC50 [1]: > 100 µM (inactive) | IC50 [2]: 20 µM (active)

CCOC(=O)C1(CCOc2ccccc2)CCN(Cc2cc(OC)ccc2OC)CC1
EC50 [16]: 3.76 µM (active)

COc1cc(O)ccc1C(=O)CCc1ccc(O)cc1
IC50 [12]: 13.3 µM (active)

O=C1ON=C(c2ccccc2)/C1=C/c1ccc(-c2ccccc2[N+](=O)[O-])o1
EC50 [17]: 21.4 µM (active) | AC50 [18]: 23.2 µM (active) | AC50 [19]: 7.21 µM (active) | EC50 [20]: 42.5 µM (active) | IC50 [21]: 11.6 µM (active) | IC50 [12]: 52.8 µM (active)

CCc1cc2c(=O)c(-c3nc4ccccc4n3C)coc2c(CN2CCCCC2C)c1O (centres undefined)
IC50 [1]: 57.8 µM (active) | IC50 [2]: 15.1 µM (active)

CC/C(=N\NC(=S)NC(C)C)c1ccc(OC(F)F)cc1
IC50 [5]: > 50 µM (inactive)

C[n+]1cccc(/C=N/NC(=O)CC23CC4CC(CC(C4)C2)C3)c1
IC50 [3]: 3.04 µM (active) | IC50 [4]: 3.28 µM (active) | IC50 [1]: 5.14 µM (active) | IC50 [2]: > 100 µM (inactive)
